Measured values from ChEMBL document CHEMBL2029308, “Synthesis and anti-leishmanial activity of 1-aryl-β-carboline derivatives against Leishmania donovani” (Bioorg Med Chem Lett, 2012).
pIC50: −log10 of the molar value.

Experiments:
[1] = Cytotoxicity against mouse peritoneal macrophages; assay type: cell-based, Peritoneal macrophage cell
Leishmania donovani = test: Antileishmanial activity against Leishmania donovani MHOM/ET/67/HU3 after 72 hrs by MTT assay; assay type: functional, organism-based; conditions: MHOM/ET/67/HU3, 72 h
[2] = Selectivity ratio of CC50 for mouse peritoneal macrophages to IC50 for Leishmania donovani MHOM/ET/67/HU3

SMILES	CC50 [1] [µM]	pIC50 (Leishmania donovani)	Ratio CC50/IC50 [2]
O=[N+]([O-])c1ccc(-c2[nH]ccc3c4ccccc4nc2-3)cc1	> 50	< 4.00	
O=C(Nc1ccc(-c2nccc3c2[nH]c2ccccc23)cc1)c1cccc2ccccc12	> 50	< 4.00	
O=C(O)C1Cc2c([nH]c3ccccc23)C(c2ccc([N+](=O)[O-])cc2)N1 (stereo unspecified)	> 50	< 4.00	
Nc1ccc(-c2nccc3c2[nH]c2ccccc23)cc1	> 50	4.33	
CC(=O)Nc1ccc(-c2nccc3c2[nH]c2ccccc23)cc1	> 50	5.67	>20
O=C(Nc1ccc(-c2nccc3c2[nH]c2ccccc23)cc1)c1ccc2ccccc2c1	> 50	5.05	
COc1ccc(C(=O)Nc2ccc(-c3nccc4c3[nH]c3ccccc34)cc2)cc1	> 50	4.91	
O=C(Nc1ccc(-c2nccc3c2[nH]c2ccccc23)cc1)c1cccs1	> 50	4.82	
CCCCCCCCCCCCCC(=O)Nc1ccc(-c2nccc3c2[nH]c2ccccc23)cc1	> 50	< 4.00	
O=C(Nc1ccc(-c2nccc3c2[nH]c2ccccc23)cc1)c1ccco1	> 50	5.20	
O=C(Nc1ccc(-c2nccc3c2[nH]c2ccccc23)cc1)c1ccccc1	> 50	5.01	
C=CCCCCCCCCC(=O)Nc1ccc(-c2nccc3c2[nH]c2ccccc23)cc1	> 50	< 4.00	
O=C(Nc1ccc(-c2nccc3c2[nH]c2ccccc23)cc1)c1ccc(F)cc1F	> 50	< 4.00	
O=C(Nc1ccc(-c2nccc3c2[nH]c2ccccc23)cc1)c1ccc(F)c(F)c1	> 50	4.88	
CC(C)(C)c1ccc(C(=O)Nc2ccc(-c3nccc4c3[nH]c3ccccc34)cc2)cc1	> 50	< 4.00	
Cc1ccc(C(=O)Nc2ccc(-c3nccc4c3[nH]c3ccccc34)cc2)cc1	> 50	4.85	
CCCCC(=O)Nc1ccc(-c2nccc3c2[nH]c2ccccc23)cc1	> 50	4.71	
CCCCCCCCCCCC(=O)Nc1ccc(-c2nccc3c2[nH]c2ccccc23)cc1	> 50	< 4.00	
O=C(/C=C/c1ccccc1)Nc1ccc(-c2nccc3c2[nH]c2ccccc23)cc1	> 50	5.11	
Cc1cc(C(=O)Nc2ccc(-c3nccc4c3[nH]c3ccccc34)cc2)c(C)o1	> 50	4.52	
O=C(Nc1ccc(-c2nccc3c2[nH]c2ccccc23)cc1)c1ccc(C(F)(F)F)cc1	> 50	< 4.00	
N#Cc1ccc(C(=O)Nc2ccc(-c3nccc4c3[nH]c3ccccc34)cc2)cc1	> 50	5.27	
CCCCCCCCCCCCCCCCOP(=O)([O-])OCC[N+](C)(C)C [MILTEFOSINE]		4.92	
